These results are taken from US20070149446A1, “Tamandarin analogs and fragments thereof and methods of making and using” (The Trustees of the University of Pennsylvania Center for …, priority 2003, published 2007).

Like-named read-outs stand apart in the source and are kept apart here.

For series [1] the following is noted: amide bond, 25.0 °C, 17.0 h.
The conditions of series [2]: amide bond, 21-membered ring, HATU/NMM, CH3CN, 0.0 °C.

With `COc1ccc(C[C@H]2C(=O)O[C@H](C)[C@H](NC(=O)OC(C)(C)C)C(=O)N[C@H](C(C)C)[C@@H](O)CC(=O)O[C@@H](C(C)C)C(=O)N[C@@H](CC(C)C)C(=O)N(C)[C@@H](C)C(=O)N2C)cc1`, the ring closure, yield of all isomers in series [1] (from CN[C@@H](Cc1ccc(OC)cc1)C(=O)O[C@H](C)[C@H](NC(=O)OC(C)(C)C)C(=O)N[C@H](C(C)C)[C@@H](O)CC(=O)O[C@H](C(=O)N[C@@H](CC(C)C)C(=O)N(C)[C@@H](C)C(=O)O)C(C)C, HATU/NMM, CH3CN, 4.8 mM) stood at 48%. `COc1ccc(C[C@H]2C(=O)O[C@H](C)[C@H](NC(=O)OC(C)(C)C)C(=O)N[C@H](C(C)C)[C@@H](O)CC(=O)O[C@@H](C(C)C)C(=O)N[C@@H](CC(C)C)C(=O)N[C@@H](C)C(=O)N2C)cc1` displayed a ring closure, yield of all isomers in series [1] (from CN[C@@H](Cc1ccc(OC)cc1)C(=O)O[C@H](C)[C@H](NC(=O)OC(C)(C)C)C(=O)N[C@H](C(C)C)[C@@H](O)CC(=O)O[C@H](C(=O)N[C@@H](CC(C)C)C(=O)N[C@@H](C)C(=O)O)C(C)C, HATU/NMM, CH3CN, 4.6 mM) of 60%. For `COc1ccc(C[C@H]2C(=O)O[C@H](C)[C@H](NC(=O)OC(C)(C)C)C(=O)N[C@H](C(C)C)[C@@H](O[Si](C(C)C)(C(C)C)C(C)C)CC(=O)O[C@@H](C(C)C)C(=O)N[C@@H](CC(C)C)C(=O)N3CCC[C@H]3C(=O)N2C)cc1`, in series [1] (from COc1ccc(C[C@@H](C(=O)O[C@H](C)[C@H](NC(=O)OC(C)(C)C)C(=O)O)N(C)C(=O)[C@@H]2CCCN2C(=O)[C@H](CC(C)C)NC(=O)[C@@H](OC(=O)C[C@H](O[Si](C(C)C)(C(C)C)C(C)C)[C@H](N)C(C)C)C(C)C)cc1, HATU/DIEA, DMF, 10.0 mM, 3 steps), the ring closure, yield of all isomers came out at 19%. For “[2-Naphthylala^5]-Tamandarin B macrocycle”, in series [2] (5.0 mM), the ring closure, isolated yield was determined as 65%. Compound [Ala^4]-Tamandarin B macrocycle registered a ring closure, isolated yield in series [2] (4.6 mM) of 60%.

[N-Me-Ala^4]-Tamandarin B macrocycle registered a ring closure, isolated yield in series [2] (4.8 mM) of 48%. [Ser^6]-Tamandarin B macrocycle registered a ring closure, isolated yield in series [2] (5.7 mM) of 89%.
